Tested on: cottontail rabbits
Assay: no-choice feeding experiment, repellency of cottontail rabbits from treated whole oats
Format: in vivo
Text: As used herein, the term “repellency” means the percent decrease in consumption (or occupancy) of a treated substrate relative to an untreated substrate. […] These values can be used to define a range, such as 50% to 75%, or 75% to 85%, or 25% to 50% decrease in consumption (or occupancy) of a treated substrate relative to an untreated substrate.
We conducted one no-choice feeding experiment for each unique combination of the trigeminal nerve irritant (methyl anthranilate) and the animal repellent (anthraquinone). For each feeding experiment, we used 24-30 cottontail rabbits to evaluate the efficacy of our repellent formulations. For each experiment, we offered untreated food for up to three days of the pretreatment and repellent-treated food during the 1-day test. For each experiment, our three test treatments (n=8−10 rabbits per treatment group) included food treated with (1) the methyl anthranilate alone, (2) the anthraquinone alone and (3) the combination of the methyl anthranilate and the anthraquinone.

SMILES | % Repellency (rabbit, in vivo) [%] | % Repellency (whole oats treated with 5000 ppm MA alone, 1-day no-choice test) [%] | % Repellency (whole oats treated with 5000 ppm MA alone, 1-day no-choice test, listed as MA) [%] | % Repellency (whole oats treated with 10,000 ppm MA alone, 1-day no-choice test) [%]
O=C1c2ccccc2C(=O)c2ccccc21 [anthraquinone, 9,10-anthraquinone] | 36 |  |  | 
COC(=O)c1ccccc1N [methyl anthranilate] |  | 6 | 6 | 62

— patent publication US20240023546A1, “TRIGEMINAL CUE FOR WILDLIFE REPELLENTS” (The United States of America, as Represented by the …, priority 2022, published 2024)
